The target in one assay is T1, CDK9/CycT1 (Homo sapiens, UniProt P50750).
T1 construct: Recombinant full-length His-tagged human CDK9 and CycT1; purchased Life Technologies PV4131; host or cells: insect cells
Nature of the assay: CDK9/CycT1 high ATP kinase assay (TR-FRET, 2 mM ATP). In kind it is biochemical. The conditions noted are these: 2 mM ATP (high ATP); median; read-out: CDK9/CyclinT1, 2 mM ATP (high ATP), IC50 (median). The gist of the method: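 Full-length His-tagged human CDK9/CycT1 (insect cell, ~0.5 μg/mL) preincubated 15 min at 22 °C with compound in Tris pH 8.0, MgCl2, DTT buffer before reaction with biotinylated peptide substrate at high ATP (2 mM).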

Assay [1] relates to MDA-MB-231, human breast cancer cells. In words: Proliferation assay MDA-MB-231 (crystal violet, 4 days). It is filed as cell-based. Conditions: Homo sapiens, MDA-MB-231, 96 h, MDA-MB-231 cells, median, read-out: Prolif-MDA MB-231, IC50-[mol/l] (median). The method, then: Human tumour cells were originally obtained from the American Type Culture Collection (ATCC), or from the Deutsche Sammlung von Mikroorganismen und Zellkulturen (DSMZ, German Collection of Microorganisms and Cell Cultures). Cultivated tumour cells (CAL-120, human breast adenocarcinoma cells, DSMZ ACC-459; MDA-MB-231, human breast cancer cells, ATCC HTB-26) were plated at a density of 4,000 cells/well in a 96-well multititer plate in 200 microL of their respective growth medium supplemented 10% fetal calf serum. After 24 hours, the cells of one plate (zero-point plate) were stained with crystal violet (see below), while the medium of the other plates was supplemented with the test substances in various concentrations (0 micromol/L, as well as in the range of 0.01-10 micromol/L; the final concentration of the solvent dimethyl sulfoxide was adjusted to 0.1%) using a Tecan HP D300 Digital Dispenser. The cells were incubated for 4 days in the presence of test substances. Cell proliferation was determined by staining the cells with crystal violet: the cells were fixed by adding 20 microL/measuring point of an 11% glutaric aldehyde solution for 15 minutes at room temperature. After three washing cycles of the fixed cells with water, the plates were dried at room temperature. The cells were stained by adding 100 microL/measuring point of a 0.1% crystal violet solution (pH 3.0). After three washing cycles of the stained cells with water, the plates were dried at room temperature. The dye was dissolved by adding 100 microL/measuring point of a 10% acetic acid solution. The extinction was determined by photometry at a wavelength of 595 nm. The change of cell number, in percent, was calculated by normalization of the measured values to the extinction values of the zero-point plate (=0%) and the extinction of the untreated (0 μM) cells (=100%). The IC50 values (inhibitory concentration at 50% of maximal effect) were determined by means of a 4 parameter fit.

Assay [2] has as its target T2, CDK12 protein level in CAL-120 breast cancer cells (Homo sapiens, UniProt Q9NYV4).
T2 construct: endogenous in cells; host or cells: CAL-120 human breast cancer cells (DSMZ ACC 459)
In words: CDK12 protein level: Protein Simple (CDK12, CAL-120). It is filed as cell-based. Conditions: CAL-120 cells, 18 h with compound, CDK12/HSP90 peak area ratio vs vehicle, median, read-out: CDK12 protein level in CAL-120 breast ca cells, DC50-[mol/l] (median). The method, then:
CAL-120 human breast cancer cells (DSMZ ACC 459) were seeded at 300,000 cells/well in 6-well plates containing 2 mL of growth medium (DMEM, 10% FCS, glutamine) and incubated for 24 h at 37° C. in an humidified incubator. Test compounds were added at various concentrations, control wells received solvent (DMSO), and the plates were incubated for another 18 h at 37° C. Cells were washed 2 times with PBS and lysed in 75 microL lysis buffer (MSD-Puffer (MSD, #R60TX-2), +1% 505S+PhosSTOP (Roche #04906837001)+complete mini (Roche #04693159001)) by scraping. The lysates were pushed 2 times through Qiashedders followed by centrifugation at 14,000 rpm for 30-50 sec. The supernatant was stored at −20° C. Proteins were separated by applying 0.4 microgramms of protein lysate to Protein Simple 66-440 kDa (Protein Simple #SM-S002) size assay columns on a PEGGY SUE or SALLY SUE equipment according to the supplier's manual. CDK12 and HSP90 (loading control) were detected using anti-human CDK12 antibody (Cell Signaling Technologies (CST) #11793) at 1:25 dilution and anti-human HSP90 antibody (CST #4877) at 1:5,000 dilution. CDK12 and HSP90 peak areas were determined using Protein Simple Compass software. Ratio of CDK12/HSP90 peak areas were calculated for each sample, and […] values (degrading concentration to achieve 50% reduction relative to vehicle treated control) were determined by means of a 4 parameter fit.

The results in this text go back to patent US20230117034A1, “PYRAZOLOTRIAZINES” (Bayer Aktiengesellschaft, priority 2019, published 2023).

The structures appear in SMILES notation.

T2 sequence (Q9NYV4 whole entry): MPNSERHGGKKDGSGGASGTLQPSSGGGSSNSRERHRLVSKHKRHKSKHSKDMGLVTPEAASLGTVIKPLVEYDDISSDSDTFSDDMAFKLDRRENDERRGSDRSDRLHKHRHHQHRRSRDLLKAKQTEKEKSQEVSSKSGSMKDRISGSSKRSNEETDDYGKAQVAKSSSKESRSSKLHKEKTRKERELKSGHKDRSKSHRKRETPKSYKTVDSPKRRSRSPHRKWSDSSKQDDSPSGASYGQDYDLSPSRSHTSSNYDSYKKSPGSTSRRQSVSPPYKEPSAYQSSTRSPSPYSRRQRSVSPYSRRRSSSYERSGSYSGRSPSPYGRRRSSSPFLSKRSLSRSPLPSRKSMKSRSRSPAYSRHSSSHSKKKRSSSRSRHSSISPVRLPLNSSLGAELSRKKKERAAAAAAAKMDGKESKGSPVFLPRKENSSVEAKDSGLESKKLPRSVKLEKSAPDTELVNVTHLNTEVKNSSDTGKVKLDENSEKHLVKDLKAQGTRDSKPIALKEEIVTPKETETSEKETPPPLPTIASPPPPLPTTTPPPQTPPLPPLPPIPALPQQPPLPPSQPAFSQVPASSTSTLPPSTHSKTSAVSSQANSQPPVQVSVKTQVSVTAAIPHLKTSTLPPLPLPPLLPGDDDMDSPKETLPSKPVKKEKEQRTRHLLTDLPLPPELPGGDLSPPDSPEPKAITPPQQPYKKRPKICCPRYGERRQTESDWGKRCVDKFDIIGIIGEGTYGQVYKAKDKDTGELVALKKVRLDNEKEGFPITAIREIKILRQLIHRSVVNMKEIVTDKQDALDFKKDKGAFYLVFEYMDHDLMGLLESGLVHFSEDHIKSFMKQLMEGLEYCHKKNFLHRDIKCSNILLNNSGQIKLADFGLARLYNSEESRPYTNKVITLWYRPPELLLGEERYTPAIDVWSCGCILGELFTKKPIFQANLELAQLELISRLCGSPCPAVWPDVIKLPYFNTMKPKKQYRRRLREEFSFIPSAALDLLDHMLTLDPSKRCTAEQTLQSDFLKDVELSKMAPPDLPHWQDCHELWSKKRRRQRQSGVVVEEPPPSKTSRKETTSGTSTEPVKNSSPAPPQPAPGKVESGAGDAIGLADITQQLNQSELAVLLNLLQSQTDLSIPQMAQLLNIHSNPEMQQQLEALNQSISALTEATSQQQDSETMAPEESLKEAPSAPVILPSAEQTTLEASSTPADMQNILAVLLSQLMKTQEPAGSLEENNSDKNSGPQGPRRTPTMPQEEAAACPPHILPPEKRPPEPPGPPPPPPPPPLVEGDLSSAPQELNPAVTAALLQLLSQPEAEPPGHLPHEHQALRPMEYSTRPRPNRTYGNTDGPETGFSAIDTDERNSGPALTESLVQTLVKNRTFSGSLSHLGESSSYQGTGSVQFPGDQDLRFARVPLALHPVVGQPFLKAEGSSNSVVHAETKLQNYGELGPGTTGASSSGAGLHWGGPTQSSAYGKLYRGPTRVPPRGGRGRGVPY
T2 sequence (O75909 whole entry partner): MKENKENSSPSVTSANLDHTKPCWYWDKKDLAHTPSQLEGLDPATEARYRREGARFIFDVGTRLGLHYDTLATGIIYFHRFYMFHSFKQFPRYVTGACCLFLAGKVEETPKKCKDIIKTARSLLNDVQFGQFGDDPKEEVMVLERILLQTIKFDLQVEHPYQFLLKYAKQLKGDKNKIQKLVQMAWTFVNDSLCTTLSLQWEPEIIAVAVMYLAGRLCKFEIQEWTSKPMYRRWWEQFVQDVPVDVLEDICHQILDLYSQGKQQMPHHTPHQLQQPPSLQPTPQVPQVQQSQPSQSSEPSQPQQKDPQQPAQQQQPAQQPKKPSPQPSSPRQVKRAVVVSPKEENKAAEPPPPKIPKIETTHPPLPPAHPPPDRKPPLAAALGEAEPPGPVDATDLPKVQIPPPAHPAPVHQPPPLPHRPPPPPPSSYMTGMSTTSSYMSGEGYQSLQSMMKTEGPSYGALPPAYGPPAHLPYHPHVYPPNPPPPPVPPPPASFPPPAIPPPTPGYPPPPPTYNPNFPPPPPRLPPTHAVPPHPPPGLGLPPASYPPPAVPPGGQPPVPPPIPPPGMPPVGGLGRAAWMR
T1 sequence (P50750 whole entry): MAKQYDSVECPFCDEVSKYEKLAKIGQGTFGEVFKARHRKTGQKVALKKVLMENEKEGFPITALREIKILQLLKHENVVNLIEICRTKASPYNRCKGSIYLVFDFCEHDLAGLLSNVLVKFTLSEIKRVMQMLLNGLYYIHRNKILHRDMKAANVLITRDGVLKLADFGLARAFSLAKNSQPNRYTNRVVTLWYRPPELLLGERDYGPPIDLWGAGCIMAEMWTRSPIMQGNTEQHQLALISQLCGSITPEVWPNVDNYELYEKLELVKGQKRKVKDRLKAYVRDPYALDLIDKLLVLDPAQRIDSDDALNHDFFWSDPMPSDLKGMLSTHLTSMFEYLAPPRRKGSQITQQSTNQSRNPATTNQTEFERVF
T1 sequence (O60563 whole entry partner): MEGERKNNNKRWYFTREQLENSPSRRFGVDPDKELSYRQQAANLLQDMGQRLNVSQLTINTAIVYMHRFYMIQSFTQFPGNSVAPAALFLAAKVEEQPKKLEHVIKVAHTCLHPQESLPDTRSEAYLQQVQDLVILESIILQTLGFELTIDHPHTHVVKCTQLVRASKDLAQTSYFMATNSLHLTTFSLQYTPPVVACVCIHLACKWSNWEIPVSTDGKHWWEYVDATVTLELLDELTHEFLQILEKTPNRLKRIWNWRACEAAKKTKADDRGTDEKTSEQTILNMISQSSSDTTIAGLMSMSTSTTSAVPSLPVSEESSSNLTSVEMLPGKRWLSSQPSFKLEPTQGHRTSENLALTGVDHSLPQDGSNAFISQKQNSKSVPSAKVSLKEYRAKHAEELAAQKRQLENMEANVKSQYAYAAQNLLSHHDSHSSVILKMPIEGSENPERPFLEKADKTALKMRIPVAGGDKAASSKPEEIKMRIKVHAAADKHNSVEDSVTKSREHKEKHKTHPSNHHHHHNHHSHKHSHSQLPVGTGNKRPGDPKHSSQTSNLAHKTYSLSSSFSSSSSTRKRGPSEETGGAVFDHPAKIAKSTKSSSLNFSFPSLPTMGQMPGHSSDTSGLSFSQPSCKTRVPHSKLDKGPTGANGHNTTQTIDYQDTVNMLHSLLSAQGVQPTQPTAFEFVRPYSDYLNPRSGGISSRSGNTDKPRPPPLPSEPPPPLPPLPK

With `CN1CCN(c2nc(NCc3nc4cc(F)ccc4[nH]3)n3ncc(C4CC4)c3n2)CC1` [Example 164, 8-cyclopropyl-N-[(5-fluoro-1H-benzimidazol-2-yl)methyl]-2-(4-methylpiperazin-1-yl)pyrazolo[1,5-a][1,3,5]triazin-4-amine], the IC50 on CDK9/CycT1 is more than 20000 nM; in assay [1] it was 25.7 nM. Further, the DC50 in assay [2] amounted to 1.08 nM.
The like results for `NCCc1cccc2[nH]c(CNc3nc(N4CCOCC4)nc4c(Br)cnn34)nc12` [Example 112, N-{[7-(2-aminoethyl)-1H-benzimidazol-2-yl]methyl}-8-bromo-2-(morpholin-4-yl)pyrazolo[1,5-a][1,3,5]triazin-4-amine] were, in that order, more than 20000 nM, 186 nM and 58.8 nM.
The like results for `Brc1cnn2c(NCc3nc4ccccc4[nH]3)nc(N3CCOCC3)nc12` [Example 4, N-[(1H-benzimidazol-2-yl)methyl]-8-bromo-2-(morpholin-4-yl)pyrazolo[1,5-a][1,3,5]triazin-4-amine] were, in that order, more than 20000 nM, 25.3 nM and 0.476 nM.
Consider `CN1CCN(c2nc(NCc3nc4ccccc4[nH]3)n3ncc(Br)c3n2)CC1=O` [Example 131, 4-(4-{[(1H-benzimidazol-2-yl)methyl]amino}-8-bromopyrazolo[1,5-a][1,3,5]triazin-2-yl)-1-methylpiperazin-2-one], for which the IC50 is more than 20000 nM at CDK9/CycT1 and 682 nM in assay [1].
On to `CN1CCN(c2nc(NCc3nc4c(F)cccc4[nH]3)n3ncc(Br)c3n2)CC1` [Example 126, 8-bromo-N-[(4-fluoro-1H-benzimidazol-2-yl)methyl]-2-(4-methylpiperazin-1-yl)pyrazolo[1,5-a][1,3,5]triazin-4-amine], for which the values for the IC50 (on CDK9/CycT1; in assay [1]) were more than 20000 nM and 13.1 nM, respectively.
As to `CN1CCN(c2nc(NCc3nc4cc(Cl)ccc4[nH]3)n3ncc(Br)c3n2)CC1` [Example 163, 8-bromo-N-[(5-chloro-1H-benzimidazol-2-yl)methyl]-2-(4-methylpiperazin-1-yl)pyrazolo[1,5-a][1,3,5]triazin-4-amine], the IC50 at CDK9/CycT1 was more than 20000 nM; in assay [1], 3.96 nM.
The like results for `CCN1CCN(c2nc(NCc3nc4ccccc4[nH]3)n3ncc(Br)c3n2)CC1` [Example 137, N-[(1H-benzimidazol-2-yl)methyl]-8-bromo-2-(4-ethylpiperazin-1-yl)pyrazolo[1,5-a][1,3,5]triazin-4-amine] were, in that order, more than 20000 nM and 192 nM.
For `CN1CCN(c2nc(NCc3nc4ccccc4[nH]3)n3ncc(Br)c3n2)C(CO)C1` (centres unmarked) [Example 155, [1-[4-(1H-benzimidazol-2-ylmethylamino)-8-bromo-pyrazolo[1,5-a][1,3,5]triazin-2-yl]-4-methyl-piperazin-2-yl]methanol], the IC50 is more than 20000 nM at CDK9/CycT1 and 174 nM in assay [1].
The like results for `CN1CCN(c2nc(NCc3nc4c(F)cccc4[nH]3)n3ncc(C4CC4)c3n2)CC1` [Example 165, 8-cyclopropyl-N-[(4-fluoro-1H-benzimidazol-2-yl)methyl]-2-(4-methylpiperazin-1-yl)pyrazolo[1,5-a][1,3,5]triazin-4-amine] were, in that order, more than 20000 nM and 95 nM.
The like results for `C[C@@H]1CN(c2nc(NCc3nc4ccccc4[nH]3)n3ncc(Br)c3n2)C[C@H](C)N1C` [Example 129, N-(1H-benzimidazol-2-ylmethyl)-8-bromo-2-[(3R,5S)-3,4,5-trimethylpiperazin-1-yl]pyrazolo[1,5-a][1,3,5]triazin-4-amine] were, in that order, more than 20000 nM and 132 nM.
For `N=S1(=O)CCN(c2nc(NCc3nc4ccccc4[nH]3)n3ncc(Br)c3n2)CC1` [Example 145, 4-(4-{[(1H-benzimidazol-2-yl)methyl]amino}-8-bromopyrazolo[1,5-a][1,3,5]triazin-2-yl)-1-imino-1lambda^6-thiomorpholin-1-one] the same measures were more than 20000 nM and 1620 nM.
On to `CN1CCN(c2nc(NCc3nc4cc(F)ccc4[nH]3)n3ncc(Br)c3n2)CC1` [Example 134, 8-bromo-N-[(5-fluoro-1H-benzimidazol-2-yl)methyl]-2-(4-methylpiperazin-1-yl)pyrazolo[1,5-a][1,3,5]triazin-4-amine], for which the IC50 is more than 20000 nM on CDK9/CycT1 and 11.7 nM in assay [1].
For `O=S1(=O)CCN(c2nc(NCc3nc4ccccc4[nH]3)n3ncc(Br)c3n2)CC1` [Example 166, 4-(4-{[(1H-benzimidazol-2-yl)methyl]amino}-8-bromopyrazolo[1,5-a][1,3,5]triazin-2-yl)-1 lambda^6-thiomorpholine-1,1-dione] the same measures were more than 20000 nM and 164 nM.
